From US20200148635A1 (priority 2017, published 2020) come the findings set out here.

One assay concerns Pyricularia oryzae. Nature of the assay: microbe, parasite or virus in culture. In kind it is cell-based. Particulars: 168 h, read-out: control compared to the untreated check.
The next assay concerns Alternaria solani. Description: In vitro test Alternaria solani (early blight of tomato/potato), radial growth on Potato Dextrose Agar. It counts as cell-based. Conditions: 168 h, agar plate, 25° C., seven days, read-out: control compared to the untreated check. On the procedure: Alternaria solani (early blight of tomato/potato): Compounds were dissolved in 0.3% DMSO and then added to Potato Dextrose Agar medium just prior to dispensing it into Petri dishes. 5 mL medium with compound in the desired concentration was dispensed into 60 mm sterile Petri-plates. After solidification each plate was seeded with 5 mm size mycelial disc taken form periphery of actively growing virulent culture plate. Plates were incubated in growth chambers at 25° C. temperature and 60% relative humidity for seven days and radial growth was measured.

The next assay deals with Septoria lycopersici. Description: In vitro test Septoria lycopersici (leaf spot of tomato), radial growth on Potato Dextrose Agar. Conditions: 168 h, agar plate, 25° C., seven days, read-out: control compared to the untreated check. It counts as cell-based. On the procedure:
Septoria lycopersici (Leaf Spot of Tomato):
Compounds were dissolved in 0.3% DMSO and then added to Potato Dextrose Agar medium just prior to dispensing it into Petri dishes. 5 mL medium with compound in the desired concentration was dispensed into 60 mm sterile Petri-plates. After solidification each plate was seeded with 5 mm size mycelial disc taken form periphery of actively growing virulent culture plate. Plates were incubated in growth chambers at 25° C. temperature and 70% relative humidity for seven days and radial growth was measured.

In the next assay the test system is Rhizoctonia solani. Description: In vitro test Rhizoctonia solani (rice sheath blight/potato black scurf), radial growth on Potato Dextrose Agar. It counts as cell-based. Conditions: 168 h, agar plate, 25° C., seven days, read-out: control compared to the untreated check. On the procedure: Rhizoctonia solani (Rice Sheath Blight/Potato Black Scurf):
Compounds were dissolved in 0.3% DMSO and then added to Potato Dextrose Agar medium just prior to dispensing it into Petri dishes. 5 mL medium with compound in the desired concentration was dispensed into 60 mm sterile Petri-plates. After solidification each plate was seeded with 5 mm size mycelial disc taken form periphery of actively growing virulent culture plate. Plates were incubated in growth chambers at 25° C. temperature and 60% relative humidity for seven days and radial growth was measured.

The test system of the next assay is Phakopsora pachyrhizi. Nature of the assay: Greenhouse Phakopsora pachyrhizi test in soybean, preventive. In kind it is in vivo. Particulars: preventive spray on soybean plants, inoculated one day after treatment with Phakopsora pachyrhizi, read-out: control compared to the untreated check. On the procedure: Phakopsora pachyrhizi Test in Soybean
Compounds were dissolved in 2% DMSO/Acetone and then mixed with water to the calibrated spray volume of 50 mL and poured into the spray bottles for further applications.
To test the preventive activity of compounds, healthy young soybean plants raised in the greenhouse were sprayed with active compound preparation at the stated application rates inside the spray cabinets using hallowcone nozzles. One day after treatment, the plants were inoculated with spore suspension containing 2.1×10^6 Phakopsora pachyrhizi inoculum. The inoculated plants were then kept in greenhouse chamber at 25° C. temperature and 90% relative humidity for disease expression.
A visual assessment of compound's performance was carried out by rating the disease severity (0-100% scale) on treated plants on 3, 7, 10 and 15 days after application. Efficacy (% control) of the compounds was calculated by comparing the disease rating in the treatment with the one of the untreated control. The sprayed plants were also assessed for compound's plant compatibility by recording symptoms like necrosis, chlorosis and stunting.

Consider `CCN(C)C=Nc1cc(Br)c(N=S(C)(=O)c2ccc(Br)cc2)nc1C` (stereo not shown) [Compound 56], for which, in the assay on Pyricularia oryzae, the inhibition of growth at 300 ppm is over 70%.
Same read-out and setting: then `CCN(C)C=Nc1cc(C)c(Oc2cccc(S(=N)(=O)C(F)(F)F)c2)cc1C` (stereo not shown) [Compound 148], with over 70%.
`CCN(C)C=Nc1cc(C)c(Oc2cccc(S(C)(=O)=NCC#N)c2)cc1C` (stereo not shown) [Compound 125]: the inhibition of growth at 300 ppm with Pyricularia oryzae and in the assay on Alternaria solani was over 70% throughout.
Regarding `CCN(C)C=Nc1cc(C)c(N=S(=O)(CCC(C)C)c2ccccc2)cc1C` (stereo not shown) [Compound 55], the inhibition of growth at 300 ppm in the assay on Pyricularia oryzae is over 70%.
`CCN(C)C=Nc1cc(C)c(Nc2ccc(S(C)(=O)=NCC3CC3)cc2)cc1C` (stereo not shown) [Compound 139]: the inhibition of growth at 300 ppm in the assay with Alternaria solani and in the assay with Septoria lycopersici was over 70% each time.
Consider `CCN(C)C=Nc1cc(C)c(N=S(=O)(c2ccccc2)C(C)C)cc1C` (stereo not shown) [Compound 66], for which the inhibition of growth at 300 ppm with Rhizoctonia solani and in the assay with Alternaria solani was over 70% each time.
Turning to `CCN=S(=O)(CC1CC1)c1cccc(Oc2cc(Cl)c(N=CN(C)CC)cc2C)c1` (stereo not shown) [Compound 20], the inhibition of growth at 300 ppm in the assay on Septoria lycopersici is over 70%.
On to `CCN(C)C=Nc1cc(C)c(N=S(=O)(c2cccc(OC)c2)C(C)C)cc1C` (stereo not shown) [Compound 75], for which the inhibition of growth at 300 ppm with Pyricularia oryzae is over 70%. For the same molecule, the pest or weed control at 500 ppm in the assay with Phakopsora pachyrhizi is over 70%.
In the case of `CCN(C)C=Nc1cc(C)c(S(C)(=O)=Nc2ccccc2)cc1Cl` (stereo not shown) [Compound 17], the inhibition of growth at 300 ppm with Rhizoctonia solani, in the assay with Alternaria solani and with Septoria lycopersici was over 70% throughout.
For the molecule `CCN(C)C=Nc1cc(Br)c(N=S(=O)(CCC(C)C)c2ccccc2)nc1C` (stereo not shown) [Compound 57], the inhibition of growth at 300 ppm in the assay with Pyricularia oryzae is over 70%.
Consider `CCN(C)C=Nc1cc(C)c(S(=O)(CC)=Nc2ccccc2)cc1Cl` (stereo not shown) [Compound 64], for which the inhibition of growth at 300 ppm with Alternaria solani was over 70%.
As for `CCN(C)C=Nc1cc(C)c(Oc2ccc(S(C)(=O)=NC#N)cc2)cc1Cl` (stereo not shown) [Compound 129], the pest or weed control at 500 ppm in the assay on Phakopsora pachyrhizi was over 70%.
In the case of `CCN(C)C=Nc1cc(C)c(S(C)(=O)=NC(=O)c2cc(C(F)(F)F)cc(C(F)(F)F)c2)cc1Cl` (stereo not shown) [Compound 31], the inhibition of growth at 300 ppm in the assay on Pyricularia oryzae is over 70%. For the same molecule, the pest or weed control at 500 ppm in the assay with Phakopsora pachyrhizi was over 70%.
In the case of `CCN(C)C=Nc1cc(C)c(Cc2ccccc2S(C)(=O)=NC)cc1C` (stereo not shown) [Compound 137], the inhibition of growth at 300 ppm with Pyricularia oryzae is over 70%.
On to `CCN(C)C=Nc1cc(C)c(Oc2cccc(S(C)(=O)=NCC3CC3)c2)cc1Cl` (stereo not shown) [Compound 18], for which the inhibition of growth at 300 ppm in the assay with Pyricularia oryzae is over 70%.
For `CCN(C)C=Nc1cc(C)c(S(=O)(CC)=NC(=O)c2cccc(OC(F)(F)F)c2)cc1Cl` (stereo not shown) [Compound 53], the inhibition of growth at 300 ppm with Pyricularia oryzae and in the assay on Alternaria solani was over 70% in each case.
Take `CCN(C)C=Nc1cc(C)c(Cc2ccc(S(C)(=O)=NCC3CC3)cc2)cc1C` (stereo not shown) [Compound 131]: the inhibition of growth at 300 ppm in the assay with Alternaria solani is over 70%.
For `CCN(C)C=Nc1cc(C)c(S(C)(=O)=Nc2cccc(OC)c2)cc1Cl` (stereo not shown) [Compound 24], in the assay on Pyricularia oryzae, the inhibition of growth at 300 ppm is over 70%.
Still for that read-out and setting: under `CCN(C)C=Nc1cc(C)c(S(C)(=O)=Nc2ccc(Cl)c(C(F)(F)F)c2)cc1Cl` (stereo not shown) [Compound 41] stands over 70%.
As for `CCN(C)C=Nc1cc(C)c(Oc2ccccc2S(=O)(=NCC2CC2)C(F)(F)F)cc1Cl` (stereo not shown) [Compound 152], in the assay on Pyricularia oryzae, the inhibition of growth at 300 ppm was over 70%. The pest or weed control at 500 ppm in the assay on Phakopsora pachyrhizi was over 70%.
For the molecule `CCN(C)C=Nc1cc(C)c(S(C)(=O)=Nc2cccc(S(F)(F)(F)(F)F)c2)cc1Cl` (stereo not shown) [Compound 45], the inhibition of growth at 300 ppm in the assay with Alternaria solani and with Septoria lycopersici was over 70% each time.
On to `CCN(C)C=Nc1cc(C)c(S(=O)(CC(C)C)=NC(=O)c2ccc(F)c(Cl)c2)cc1Cl` (stereo not shown) [Compound 72], for which the inhibition of growth at 300 ppm with Pyricularia oryzae is over 70%.
The same measure, in the same setting: under `CCN=S(C)(=O)c1cccc(Oc2cc(C)c(N=CN(C)CC)cc2C)c1` (stereo not shown) [Compound 54] stands over 70%; under `CCN(C)C=Nc1cc(Br)c(Oc2cccc(S(C)(=O)=NCC3CCC3)c2)nc1C` (stereo not shown) [Compound 69], over 70%.
For `CCN(C)C=Nc1cc(Br)c(N=S(C)(=O)c2ccccc2)nc1C` (stereo not shown) [Compound 47], the inhibition of growth at 300 ppm with Pyricularia oryzae was over 70%. Moreover, the pest or weed control at 500 ppm in the assay on Phakopsora pachyrhizi was over 70%.
`CCN(C)C=Nc1cc(C)c(S(C)(=O)=NC(=O)c2cccc(Cl)c2)cc1Cl` (stereo not shown) [Compound 40]: the inhibition of growth at 300 ppm in the assay with Pyricularia oryzae is over 70%.
`CCN(C)C=Nc1cc(C)c(S(=O)(CC(C)C)=NCc2cccc(C(F)(F)F)c2)cc1Cl` (stereo not shown) [Compound 102]: the inhibition of growth at 300 ppm in the assay on Pyricularia oryzae and in the assay on Alternaria solani was over 70% throughout.
Consider `CCN(C)C=Nc1cc(C)c(Cc2ccccc2S(C)(=N)=O)cc1C` (stereo not shown) [Compound 136], for which, in the assay with Pyricularia oryzae, the inhibition of growth at 300 ppm is over 70%.
On to `CCN(C)C=Nc1cc(C)c(S(=O)(CC(C)C)=Nc2ccc(N(C)C)cc2)cc1Cl` (stereo not shown) [Compound 110], for which the inhibition of growth at 300 ppm with Pyricularia oryzae was over 70%.
`CCN(C)C=Nc1cc(C)c(S(=O)(CC)=Nc2cc(F)c(F)c(F)c2)cc1Cl` (stereo not shown) [Compound 62]: the inhibition of growth at 300 ppm in the assay on Pyricularia oryzae and in the assay with Alternaria solani was over 70% in each case.
For the molecule `CCN(C)C=Nc1cc(C)c(S(=O)(CC(C)C)=NCc2ccc(F)c(Cl)c2)cc1Cl` (stereo not shown) [Compound 100], the inhibition of growth at 300 ppm with Pyricularia oryzae was over 70%.
As to `CCN(C)C=Nc1cc(C)c(S(C)(=O)=Nc2cccc(C(F)(F)F)c2)cc1Cl` (stereo not shown) [Compound 36], the inhibition of growth at 300 ppm in the assay on Pyricularia oryzae is over 70%.
For the molecule `CCN=S(C)(=O)c1ccc(Cc2cc(C)c(N=CN(C)CC)cc2C)cc1` (stereo not shown) [Compound 130], the inhibition of growth at 300 ppm in the assay on Alternaria solani is over 70%.
Take `CCN(C)C=Nc1cc(C)c(Oc2cccc(S(=O)(=NC)C(F)(F)F)c2)cc1C` (stereo not shown) [Compound 151]: the inhibition of growth at 300 ppm with Pyricularia oryzae was over 70%.
The same measure, in the same setting: then `CCN(C)C=Nc1cc(C)c(S(=O)(CC(C)C)=Nc2ccc(OC)cc2)cc1Cl` (stereo not shown) [Compound 111], with over 70%; and `CCN(C)C=Nc1cc(C)c(S(=O)(CC)=NC(=O)c2ccccc2)cc1Cl` (stereo not shown) [Compound 58], with over 70%; and `CCN(C)C=Nc1cc(C)c(S(C)(=O)=NC(=O)c2cccc(C(F)(F)F)c2)cc1Cl` (stereo not shown) [Compound 30], with over 70%.
Regarding `CCN(C)C=Nc1cc(C)c(Oc2cccc(S(C)(=O)=NCC3CCC3)c2)cc1C` (stereo not shown) [Compound 71], the inhibition of growth at 300 ppm in the assay on Pyricularia oryzae is over 70%.
For `CCN(C)C=Nc1cc(C)c(S(=O)(CC(C)C)=NCc2cccc(Cl)c2)cc1Cl` (stereo not shown) [Compound 101], in the assay on Alternaria solani, the inhibition of growth at 300 ppm is over 70%. For the same molecule, the pest or weed control at 500 ppm in the assay on Phakopsora pachyrhizi is over 70%.
Consider `CCN(C)C=Nc1cc(Br)c(N=S(=O)(CC2CC2)c2cccc(F)c2)nc1C` (stereo not shown) [Compound 106], for which the inhibition of growth at 300 ppm in the assay with Pyricularia oryzae was over 70%. The pest or weed control at 500 ppm in the assay with Phakopsora pachyrhizi was over 70%.
Consider `CCN(C)C=Nc1cc(C)c(S(=O)(CC)=NC(=O)c2cccc(C(F)(F)F)c2)cc1Cl` (stereo not shown) [Compound 51], for which the inhibition of growth at 300 ppm with Pyricularia oryzae and in the assay on Alternaria solani was over 70% throughout.
As for `CCN(C)C=Nc1cc(C)c(S(C)(=O)=NC(=O)c2ccc(F)c(F)c2)cc1Cl` (stereo not shown) [Compound 34], in the assay on Pyricularia oryzae, the inhibition of growth at 300 ppm is over 70%. Further, the pest or weed control at 500 ppm in the assay with Phakopsora pachyrhizi was over 70%.
As to `CCN(C)C=Nc1cc(C)c(S(=O)(CC)=Nc2cccc(OC(F)(F)F)c2)cc1Cl` (stereo not shown) [Compound 61], the inhibition of growth at 300 ppm in the assay with Alternaria solani and in the assay with Septoria lycopersici was over 70% throughout. In the assay on Phakopsora pachyrhizi, the pest or weed control at 500 ppm is over 70%.
Regarding `CCN(C)C=Nc1cc(C)c(S(C)(=O)=NC(=O)c2ccc(F)c(Cl)c2)cc1Cl` (stereo not shown) [Compound 29], the inhibition of growth at 300 ppm with Pyricularia oryzae is over 70%.
The same measure, in the same setting: under `CCN(C)C=Nc1cc(C)c(S(C)(=O)=NC(=O)c2ccccc2)cc1Cl` (stereo not shown) [Compound 28] stands over 70%.
For the molecule `CCN(C)C=Nc1cc(C)c(S(=O)(CC)=Nc2cccc(C(F)(F)F)c2)cc1Cl` (stereo not shown) [Compound 60], the inhibition of growth at 300 ppm with Pyricularia oryzae was over 70%. For the same molecule, the pest or weed control at 500 ppm in the assay on Phakopsora pachyrhizi is over 70%.
Regarding `CCN(C)C=Nc1cc(C)c(S(=O)(CC)=NC(=O)c2cccc(F)c2)cc1Cl` (stereo not shown) [Compound 52], the inhibition of growth at 300 ppm in the assay with Alternaria solani was over 70%.
With `CCN(C)C=Nc1cc(C)c(Cc2ccccc2S(C)(=O)=NCC2CC2)cc1C` (stereo not shown) [Compound 138], in the assay with Pyricularia oryzae, the inhibition of growth at 300 ppm was over 70%.
The same measure, in the same setting: under `CCN(C)C=Nc1cc(C)c(S(=O)(CC)=NC(=O)c2nn(C)cc2C(F)F)cc1Cl` (stereo not shown) [Compound 59] stands over 70%.
For `CCN(C)C=Nc1cc(Br)c(N=S(=O)(c2cccc(OC)c2)C(C)C)nc1C` (stereo not shown) [Compound 78], the inhibition of growth at 300 ppm in the assay with Alternaria solani is over 70%.
